Experimental data: patent US20260007758A1, “SO[…]-2 RECEPTOR (SST2R) NON-PEPTIDE DRUG CONJUGATES AND USES THEREOF” (Crinetics Pharmaceuticals, Inc., priority 2024, published 2026)

Key:
Assay type in all cases: cell-based
[1] = biological target: T1, human somatostatin receptor subtype 2 (Homo sapiens, UniProt P30874); assay: Functional assay for SSTR2 agonists (HTRF cAMP); details: CHO-K1 cells stably expressing human SST2; NKH477-stimulated cAMP; 20 min at 37 C; read-out: hSST2 cAMP Avg EC50
T1 construct: expressed in transfected cells
Outline: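 CHO-K1 cells stably expressing human SSTR2 treated with compound (typically 0-10,000 nM final) for 20 min at 37 °C. Lysate cAMP measured by HTRF (665/620 nm ratio), converted via standard curve; EC50 from cAMP vs concentration.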

SST2 = biological target: T2, SST2 (Homo sapiens, UniProt P30874); assay: PathHunter CHO-K1 SST2 Internalization Assay; details: PathHunter CHO-K1 SST2 cells; 90 min at 37 C; luminescence; read-out: Internalization EC50
T2 construct: host or cells: PathHunter CHO-K1 SST2 cells
Outline: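 CHO-K1 cells expressing human SST2, 2500 cells/well, grown 48 h, then exposed 90 min at 37 C to 11-point 1:3 NDC dilutions (final top 10 uM). Beta-Glo luminescence after 60 min at room temperature; four-parameter IC50, duplicate mean, background-corrected.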

[2] = test system: NCI-H524 human small cell lung cancer cells; assay: H524 assay: inhibition of cell proliferation (CellTiter Glo); details: 2 h treatment, washout, additional 70 h incubation
Outline: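 NCI-H524 cells were exposed for 2 h to NDC in an 11-point two-fold series starting at 1 uM. The drug was then washed out and cells grew a further 70 h. CellTiter Glo luminescence gave % inhibition versus untreated control, and IC50 came from a four-parameter nonlinear regression.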

T1 sequence (P30874 whole entry): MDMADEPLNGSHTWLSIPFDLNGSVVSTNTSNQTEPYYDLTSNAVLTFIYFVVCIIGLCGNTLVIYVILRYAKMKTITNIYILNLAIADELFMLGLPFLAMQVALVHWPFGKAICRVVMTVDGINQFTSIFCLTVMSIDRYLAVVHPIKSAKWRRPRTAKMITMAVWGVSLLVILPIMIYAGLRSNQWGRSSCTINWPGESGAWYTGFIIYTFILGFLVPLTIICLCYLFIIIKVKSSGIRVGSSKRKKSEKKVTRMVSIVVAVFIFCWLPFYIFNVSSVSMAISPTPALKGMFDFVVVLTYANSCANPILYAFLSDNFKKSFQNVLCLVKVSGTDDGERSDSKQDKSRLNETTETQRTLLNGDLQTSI
T2 sequence (P30874 whole entry): as above

Q: For CC[C@H](C)[C@@H]([C@@H](CC(=O)N1CCC[C@H]1[C@H](OC)[C@@H](C)C(=O)N[C@H](C)[C@@H](O)c1ccccc1)OC)N(C)C(=O)[C@@H](NC(=O)[C@H](C(C)C)N(C)C(=O)OCc1ccc(NC(=O)[C@H](CCCNC(N)=O)NC(=O)[C@@H](NC(=O)CCOCCC(=O)NCCNc2ncc(-c3cc(C)cc(F)c3)c(N3CCC(N)CC3)c2-c2nc3ccc(Cl)cc3[nH]2)C(C)C)c(OCC(=O)O)c1)C(C)C [Compound 18], which EC50 [1] is on record?
A: 0.097 nM

Q: What about the EC50 (SST2) of the same compound?
A: 6.4 nM

Q: And the EC50 [2]?
A: 7.8 nM

Q: How did the EC50 [1] turn out when CC[C@H](C)[C@@H]([C@@H](CC(=O)N1CCC[C@H]1[C@H](OC)[C@@H](C)C(=O)N[C@H](C)[C@@H](O)c1ccccc1)OC)N(C)C(=O)[C@@H](NC(=O)[C@H](C(C)C)N(C)C(=O)OCc1ccc(NC(=O)[C@H](CCCNC(N)=O)NC(=O)[C@@H](NC(=O)c2cc(C(=O)NCC(=O)O)cc(N(C)CCOCCC(=O)NCCNc3ncc(-c4cc(C)cc(F)c4)c(N4CCC(N)CC4)c3-c3nc4ccc(Cl)cc4[nH]3)c2)C(C)C)cc1)C(C)C [Compound 158] was run?
A: 0.15 nM

Q: And the EC50 (SST2)?
A: 5.1 nM

Q: What about the EC50 [2] of the same compound?
A: 40 nM

Q: For CC[C@H](C)[C@@H]([C@@H](CC(=O)N1CCC[C@H]1[C@H](OC)[C@@H](C)C(=O)N[C@H](C)[C@@H](O)c1ccccc1)OC)N(C)C(=O)[C@@H](NC(=O)[C@H](C(C)C)N(C)C(=O)OCc1ccc(NC(=O)[C@H](CCCNC(N)=O)NC(=O)[C@@H](NC(=O)[C@H](CCc2nnn[nH]2)NC(=O)CCOCCC(=O)NCCNc2ncc(-c3cc(C)cc(F)c3)c(N3CCC(N)CC3)c2-c2nc3ccc(Cl)cc3[nH]2)C(C)C)cc1C(=O)NCCN)C(C)C [Compound 84], which EC50 [1] is on record?
A: 0.28 nM

Q: What about the EC50 (SST2) of the same compound?
A: 3.8 nM

Q: And the EC50 [2]?
A: 580 nM

Q: CC[C@H](C)[C@@H]([C@@H](CC(=O)N1CCC[C@H]1[C@H](OC)[C@@H](C)C(=O)N[C@H](C)[C@@H](O)c1ccccc1)OC)N(C)C(=O)[C@@H](NC(=O)[C@H](C(C)C)N(C)C(=O)OCc1ccc(NC(=O)[C@H](CCCNC(N)=O)NC(=O)[C@@H](NC(=O)CCOCCC(=O)NCCNc2ncc(-c3cc(C)cc(F)c3)c(N3CCC(N)CC3)c2-c2nc3ccc(Cl)cc3[nH]2)C(C)C)c(O[C@@H]2O[C@H](C(=O)N(C)CCOCCC(=O)O)[C@@H](O)[C@H](O)[C@H]2O)c1)C(C)C [Compound 231] was tested. Which EC50 [1] did it give?
A: 0.33 nM

Q: And the EC50 (SST2)?
A: 12 nM

Q: What about the EC50 [2] of the same compound?
A: 49 nM

Q: Which EC50 [1] does the source give for CC[C@H](C)[C@@H]([C@@H](CC(=O)N1CCC[C@H]1[C@H](OC)[C@@H](C)C(=O)N[C@H](C)[C@@H](O)c1ccccc1)OC)N(C)C(=O)[C@@H](NC(=O)[C@H](C(C)C)N(C)C(=O)OCc1ccc(NC(=O)[C@H](CCCNC(N)=O)NC(=O)[C@@H](NC(=O)c2cc(NCCOCCC(=O)NCCNc3ncc(-c4cc(C)cc(F)c4)c(N4CCC(N)CC4)c3-c3nc4ccc(Cl)cc4[nH]3)cc(C(=O)NCCN(CC(=O)O)CC(=O)O)c2)C(C)C)cc1C(=O)NCCN)C(C)C [Compound 58] here?
A: 0.26 nM

Q: And the EC50 (SST2)?
A: 14 nM

Q: What about the EC50 [2] of the same compound?
A: 910 nM

Q: CC[C@H](C)[C@@H]([C@@H](CC(=O)N1CCC[C@H]1[C@H](OC)[C@@H](C)C(=O)N[C@H](C)[C@@H](O)c1ccccc1)OC)N(C)C(=O)[C@@H](NC(=O)[C@H](C(C)C)N(C)C(=O)OCc1ccc(NC(=O)[C@H](CCCNC(N)=O)NC(=O)[C@@H](NC(=O)C[C@@H](N)C(=O)NCCOCCC(=O)NCCNc2ncc(-c3cc(C)cc(F)c3)c(N3CCC(N)CC3)c2-c2nc3ccc(Cl)cc3[nH]2)C(C)C)c(CCC(=O)O)c1)C(C)C [Compound 205] was tested. Which EC50 [1] did it give?
A: 0.086 nM

Q: What about the EC50 (SST2) of the same compound?
A: 5.2 nM

Q: What about the EC50 [2] of the same compound?
A: 37 nM

Q: CC[C@H](C)[C@@H]([C@@H](CC(=O)N1CCC[C@H]1[C@H](OC)[C@@H](C)C(=O)N[C@H](C)[C@@H](O)c1ccccc1)OC)N(C)C(=O)[C@@H](NC(=O)[C@H](C(C)C)N(C)C(=O)OCc1ccc(NC(=O)[C@H](CCCNC(N)=O)NC(=O)[C@@H](NC(=O)[C@@H](CS(=O)(=O)O)NC(=O)CCOCCC(=O)NCCNc2ncc(-c3cc(C)cc(F)c3)c(N3CCC(N)CC3)c2-c2nc3ccc(Cl)cc3[nH]2)C(C)C)cc1C(=O)NCCN)C(C)C [Compound 28] was tested. Which EC50 [1] did it give?
A: 0.074 nM

Q: And the EC50 (SST2)?
A: 11 nM

Q: What about the EC50 [2] of the same compound?
A: 120 nM
